Results: US12568963B2, “Compounds and compositions for nematode treatment” (IOWA STATE UNIVERSITY RESEARCH FOUNDATION, INC., priority 2020, dated 2026)
Several values for one entry are separate records, joined by “and”; a condition that tells them apart may be missing. Identical values can stand only once. Like-named read-outs stand apart in the source and are kept apart here. Marks after values point to notes of the source that are not given here.

Key:
SCN = details: for SCN Population Densities 34 DAP / SCN Population Densities 64 DAP / SCN Population Densities harvest / Biomass at harvest, total / Biomass at harvest, seed: susceptible soybean; for SCN Population Densities 34 DAP: 34 days after planting; for SCN Population Densities 64 DAP: 64 days after planting; for Biomass at harvest, total: dry weight of all plants per microplot; for Biomass at harvest, seed: seed weight per microplot
Excerpt: Microplots were constructed by inserting 1-m-diameter by 0.25-m-tall circles of plastic drainage pipe into the soil in a field on a university-owned research farm located 10 km (6 miles) due west of Ames, IA. The field was not infested with SCN prior to being infested for the experiment.
The soil in the top 20 cm of each microplot was loosened, turned over, and artificially infested with approximately 570,000 SCN eggs contained within cysts in 1 liter of soil from greenhouse cultures. The SCN inoculum was applied in a band across the middle of the microplot (FIG. 5A), then 1.65 L of treatment solution were applied over the infested soil. […] Two different control treatments consisted of microplots receiving 1.65 L of autoclaved, deionized water and microplots receiving 1.65 L of the solvent used to dilute the compounds. The SCN-infested soil inoculum and applied liquid treatment were rototilled into the soil in each microplot, then 40 seeds of the SCN-susceptible variety “Williams 82” were planted in a single, central row within each microplot (FIG. 5B). Similarly, seeds of the SCN-resistant variety “Jack” were planted in microplots infested with SCN inoculum and treated with water as a third control treatment. There were four replications of each of the six treatments arranged in a randomized complete block design. Microplots were spaced 1 m apart in rows separated by 3 m to avoid cross contamination among microplots (FIG. 5F). Plants were grown for the entire 2020 growing season (FIGS. 5C through 5H).
The total number of plants growing in each microplot were counted (i.e., a “stand count”) 34 days after planting. A total of five soil cores, 2 cm in diameter and 15 to 20 cm deep, were collected from the root zone on either side of the row of soybean plants in each microplot 34 days after planting, 64 days after planting, and when the plants were removed from the microplots to determine the SCN population densities. SCN requires approximately 30 days to complete a single generation. […] SCN cysts (dead females full of eggs) were extracted from the soil samples using a wet sieving method, and eggs were released from the recovered cysts by crushing cysts with a motorized rubber stopper. Recovered eggs were stained with acid fuchsin and counted under a microscope to determine their number per 100 cm^3 of soil.
The stems of soybean plants in each microplot were cut at the soil line, and all plants from each microplot were placed in large paper bags and stored in an unheated shed until they were further processed. The dry weight of all plants in each microplot was determined (total plant biomass at harvest), and then all plants from each microplot were fed through a plot combine to collect and weigh the seeds (seed biomass).

SCN eggs = experiment: SCN hatching assay (continuous and short-term exposure); details: in vivo
Description: Two similar assays ran synchronously. For both, approximately 300 eggs were pipetted onto 20 mm-diameter plastic microsieves and placed in a six-well plate and incubated at 25° C. in 3 mL of treatment (FIG. 1A). In a continuous exposure assay, eggs (FIG. 1B) were incubated in treatments for 15 days, and in a short-term exposure assay, eggs were incubated in treatments for one day, rinsed, then incubated in deionized water for 14 days. The number of hatched second-stage juveniles (FIG. 1B) was determined for both assays after 3, 6, 9, 12, and 15 days when the microsieves containing the eggs were moved to an empty well and fresh treatment solution was added. […] Compounds were tested over twelve different experimental runs in total, with some tested three times, others twice, and some once.
The number of hatched and unhatched juveniles of SCN in each treatment were subjected to an analysis with a quasibinomial generalized linear model to estimate the percent hatching for each treatment in each individual experimental run. Then, a test of marginal means was done to determine the estimated percent hatching in each treatment over all runs. […] Analysis were performed on four different treatment groups: continuous 100 ppm, short term 100 ppm, continuous 10 ppm, and short term 10 ppm.
Because of the complexity of the experimental design and the large variation in hatch rates between different testing blocks, as well as the long duration over which testing has occurred, the statistical analysis is not straight-forward. First, within each block bi, the mean μi hatch rate (in percent) in the solvent control is calculated (in blocks with both short-term and continuous exposure, these two testing methods are analyzed independently). For each treatment hatch rate xj in block bi, a “hatching score” hij is the calculated as
The arcsine transformation is used to account for the fact that calculating the ratio of hatching is subject to non-linear effects. A general linear model is then used to account for additional block effects, and Dunnett's adjustment is used as the multiple comparison procedure to control the familywise error rate, as all treatments are compared to the solvent control. […] These controls were not used in the calculation of significance other than as controls common to each block in the unbalanced incomplete block design experiment.
The estimate column contains an estimate of the difference in hatch rate modulation between the solvent control and the treatment. This is estimated as a percentage hatch rate of the control. For reliability of the magnitude of the effect, more than one block is needed. Due to the high variation in solvent control hatch rates between blocks, some percentage modulations may fall outside the expected range (e.g., below −100%).
Due to the arctangent/tangent conversions, the standard errors of the mean (column SE) are very rough estimates of the standard error. However, the p value column contains the actual p-values.

[1] = Solubility in the solvent system / water; type: physicochemical
Description: Several tested compounds were obtained commercially while others were synthesized from simple starting materials (see Example 1, supra). Compounds were dissolved in a solvent containing 0.08% ethanol, 0.08% TRITON™ X-100, and nano-purified water and were tested at 10 and 100 ppm.
Almost all compounds were tested at 100 ppm, provided they were sufficiently soluble in the solvent system at this concentration.

M. incognita = experiment: RKN quick sand assay (cucumber root galling); type: in vivo; details: 15 days after infestation with 2,000 M. incognita eggs; abamectin 100 ppm drench; solvent control 24%
Description: Deionized water, 100 ppm abamectin, and solvent were used as controls. […] To date, compounds were tested in three different experimental runs, with some compounds being tested twice and others once. A beta regression model was used to estimate the percent of galling for each treatment in each run. As with the hatching data analyses, a test of marginal means was performed to determine the estimated percent of galling in each treatment over all runs.

With `Cc1ccc(C=C[N+](=O)[O-])cc1` [4-M-BNS, 4-methyl beta-nitrostyrene] the “SCN Population Densities 34 DAP” value (SCN; 100 ppm solution) was 5,800 # eggs per 100 cm^3 soil, the “SCN Population Densities 64 DAP” value (SCN; 100 ppm solution) was 7,400 # eggs per 100 cm^3 soil and the “SCN Population Densities harvest” value (SCN; 100 ppm solution, at harvest) was 9,800 # eggs per 100 cm^3 soil. The “Biomass at harvest, total” value (SCN; 100 ppm solution) was 654 g, the “Biomass at harvest, seed” value (SCN; 100 ppm solution) was 322 g and the “seed weights (analogous to grain yield) versus susceptible/water treatment” value (SCN; in vivo) was “significantly greater”. For the same compound, the “soil SCN egg population densities 64 days after planting versus susceptible/water treatment” value (SCN; in vivo) was “significantly lower”.

For `COc1cc(/C=C/C=O)ccc1O` [4H3MC], the “estimate (difference in hatch rate modulation between solvent control and treatment, as percentage hatch rate of the control)” value (SCN eggs) was −55.3%.

With `C(=C\C1SCCS1)/c1ccccc1` [JSK3011] the solubility in water ([1]; not sufficiently soluble at 100 ppm in solvent system, only tested at 10 ppm) was “low solubility”.

With `O=C(/C=C/c1ccc(Cl)cc1)C1CC1` [JSK3087, 4-Chlorostyryl Cyclopropyl Ketone] the “soil SCN egg population densities 64 days after planting versus susceptible/water treatment” value (SCN; 100 ppm solution, LSD alpha = 0.10) was “significantly lower”, the “SCN Population Densities 34 DAP” value (SCN; 100 ppm solution) was 7,275 # eggs per 100 cm^3 soil and the “SCN Population Densities 64 DAP” value (SCN; 100 ppm solution) was 4,700 # eggs per 100 cm^3 soil. The “SCN Population Densities harvest” value (SCN; 100 ppm solution, at harvest) was 6,400 # eggs per 100 cm^3 soil, the “Biomass at harvest, total” value (SCN; 100 ppm solution) was 668 g and the “Biomass at harvest, seed” value (SCN; 100 ppm solution) was 327 g. The “seed weights (analogous to grain yield) versus susceptible/water treatment” value (SCN; at harvest) was “significantly greater”.

For `O=CC(Br)=Cc1ccccc1` [a-bromocinnamaldehyde], the solubility in water [1] was “low solubility”.

For `N#CC=Cc1ccccc1` [cinnamonitrile], the “estimate (difference in hatch rate modulation between solvent control and treatment, as percentage hatch rate of the control)” value (SCN eggs) was −53.8%.

In the case of `CC(=O)C=Cc1ccccc1` [methyl styryl ketone], the “estimate (difference in hatch rate modulation between solvent control and treatment, as percentage hatch rate of the control)” value (SCN eggs) is reported as −75.4% and −85%.

In the case of `O=S(=O)([O-])[O-].[Zn+2]` [zinc sulfate, reference compound], the “estimate (difference in hatch rate modulation between solvent control and treatment, as percentage hatch rate of the control)” value (SCN eggs) is reported as 54.7% and 54.9%.

In the case of abamectin, the “percentage galling of cucumber roots” value (M. incognita) is reported as 0%.
